Test results published in the Kinase Knowledgebase extract (Sharma et al. 2016).

Molecular target: EGFR (human) (UniProt P00533)
Sequence (P00533 whole entry, looked up): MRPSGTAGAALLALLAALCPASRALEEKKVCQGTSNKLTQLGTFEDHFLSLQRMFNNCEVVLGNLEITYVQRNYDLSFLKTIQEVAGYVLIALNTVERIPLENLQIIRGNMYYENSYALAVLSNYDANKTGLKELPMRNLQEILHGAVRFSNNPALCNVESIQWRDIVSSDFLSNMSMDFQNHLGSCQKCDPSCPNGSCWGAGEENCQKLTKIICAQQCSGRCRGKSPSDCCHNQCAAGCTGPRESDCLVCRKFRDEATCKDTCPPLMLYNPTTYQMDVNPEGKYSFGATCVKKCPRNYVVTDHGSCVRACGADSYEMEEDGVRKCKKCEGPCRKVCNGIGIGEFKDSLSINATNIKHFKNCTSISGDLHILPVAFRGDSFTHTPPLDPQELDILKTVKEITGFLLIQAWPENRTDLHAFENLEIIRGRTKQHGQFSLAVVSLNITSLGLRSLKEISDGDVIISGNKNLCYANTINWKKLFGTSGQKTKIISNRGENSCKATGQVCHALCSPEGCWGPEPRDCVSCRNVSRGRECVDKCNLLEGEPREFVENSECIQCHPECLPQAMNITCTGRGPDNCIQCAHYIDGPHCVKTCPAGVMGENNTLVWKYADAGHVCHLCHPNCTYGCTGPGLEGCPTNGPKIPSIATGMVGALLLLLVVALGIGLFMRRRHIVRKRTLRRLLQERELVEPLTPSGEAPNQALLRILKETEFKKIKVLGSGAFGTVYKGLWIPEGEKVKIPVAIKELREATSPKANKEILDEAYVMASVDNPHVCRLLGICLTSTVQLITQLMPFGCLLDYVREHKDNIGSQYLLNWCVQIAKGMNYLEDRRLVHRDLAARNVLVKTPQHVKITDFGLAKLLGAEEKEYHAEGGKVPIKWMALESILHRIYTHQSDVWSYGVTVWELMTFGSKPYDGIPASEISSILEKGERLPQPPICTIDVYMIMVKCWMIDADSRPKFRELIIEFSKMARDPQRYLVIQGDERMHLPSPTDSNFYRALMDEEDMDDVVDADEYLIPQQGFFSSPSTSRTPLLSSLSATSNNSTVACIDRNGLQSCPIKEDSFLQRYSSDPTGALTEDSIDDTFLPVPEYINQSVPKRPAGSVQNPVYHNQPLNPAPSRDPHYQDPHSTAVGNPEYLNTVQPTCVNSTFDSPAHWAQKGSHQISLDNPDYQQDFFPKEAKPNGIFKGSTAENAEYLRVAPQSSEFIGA

IC50 | Compound
73 nM | C=CC(=O)N1CCC[C@@H](n2nc(-c3ccc(CNS(=O)(=O)c4ccc(-c5ccccc5)cc4)cc3)c3c(N)ncnc32)C1
91.8 nM | C=CC(=O)N1CCC[C@@H](n2nc(-c3ccc(CNS(=O)(=O)c4ccccc4C)cc3)c3c(N)ncnc32)C1
73.3 nM | C=CC(=O)N1CCC[C@@H](n2nc(-c3ccc(CNS(=O)(=O)c4ccc5c(c4)CCC5)cc3)c3c(N)ncnc32)C1
129 nM | C=CC(=O)N1CCC[C@@H](n2nc(-c3ccc(CNS(=O)(=O)c4ccc(OC)cc4)cc3)c3c(N)ncnc32)C1
277 nM | C=CC(=O)N1CCC[C@@H](n2nc(-c3ccc(CNS(=O)(=O)CCC(F)(F)F)cc3)c3c(N)ncnc32)C1
250 nM | C=CC(=O)N1CCC[C@@H](n2nc(-c3ccc(CNS(=O)(=O)c4ccc(C)cc4C)cc3)c3c(N)ncnc32)C1
78.8 nM | C=CC(=O)N1CCC[C@@H](n2nc(-c3ccc(CN(C)S(=O)(=O)c4ccccc4F)cc3)c3c(N)ncnc32)C1
60.5 nM | C=CC(=O)N1CCC[C@@H](n2nc(-c3ccc(CNS(=O)(=O)c4ccc(Cl)cc4)cc3)c3c(N)ncnc32)C1
95.7 nM | C=CC(=O)N1CCC[C@@H](n2nc(-c3ccc(CNS(=O)(=O)c4c(F)cccc4F)cc3)c3c(N)ncnc32)C1
41 nM | C=CC(=O)N1CCC[C@@H](n2nc(-c3ccc(CNS(=O)(=O)c4ccccc4F)cc3)c3c(N)ncnc32)C1
265 nM | C=CC(=O)N1CCC[C@@H](n2nc(-c3ccc(CNS(=O)(=O)c4ccccc4)cc3)c3c(N)ncnc32)C1
199 nM | C=CC(=O)N1CCC[C@@H](n2nc(-c3ccc(CNS(=O)(=O)c4ccc(F)c(C(F)(F)F)c4)cc3)c3c(N)ncnc32)C1
45 nM | C=CC(=O)N1CCC[C@@H](n2nc(-c3ccc(CNS(=O)(=O)C4CCCCC4)cc3)c3c(N)ncnc32)C1
86.2 nM | C=CC(=O)N1CCC[C@@H](n2nc(-c3ccc(CNS(=O)(=O)c4cccc(C)c4)cc3)c3c(N)ncnc32)C1
194 nM | C=CC(=O)N1CCC[C@@H](n2nc(-c3ccc(CNS(=O)(=O)c4cc(C)ccc4C)cc3)c3c(N)ncnc32)C1
163 nM | C=CC(=O)N1CCC[C@@H](n2nc(-c3ccc(CNS(=O)(=O)c4cc(F)ccc4OC)cc3)c3c(N)ncnc32)C1
81.7 nM | C=CC(=O)N1CCC[C@@H](n2nc(-c3ccc(CNS(=O)(=O)c4cccc(F)c4)cc3)c3c(N)ncnc32)C1
86.3 nM | C=CC(=O)N1CCC[C@@H](n2nc(-c3ccc(CNS(=O)(=O)c4ccccc4C(F)(F)F)cc3)c3c(N)ncnc32)C1
272 nM | N#CN1CCC[C@@H](n2nc(-c3ccc(CNS(=O)(=O)c4cccc(F)c4)cc3)c3c(N)ncnc32)C1
323 nM | C=CC(=O)N1CCC[C@@H](n2nc(-c3ccc(CNS(=O)(=O)c4ccc(C)cc4OC)cc3)c3c(N)ncnc32)C1

IC50 | Compound
124 nM | C=CC(=O)N1CCC[C@@H](n2nc(-c3ccc(CNS(=O)(=O)c4ccc(F)cc4F)cc3)c3c(N)ncnc32)C1
90.7 nM | C=CC(=O)N1CCC[C@@H](n2nc(-c3ccc(CNS(=O)(=O)c4ccc(C)cc4)cc3)c3c(N)ncnc32)C1
290 nM | C=CC(=O)N1CCC[C@@H](n2nc(-c3ccc(CNS(=O)(=O)c4cccc(OC)c4)cc3)c3c(N)ncnc32)C1
174 nM | C=CC(=O)N1CCC[C@@H](n2nc(-c3ccc(CNS(=O)(=O)c4ccc(C)cc4F)cc3)c3c(N)ncnc32)C1
97.7 nM | C=CC(=O)N1CCC[C@@H](n2nc(-c3ccc(CNS(=O)(=O)c4cc(F)cc(C(F)(F)F)c4)cc3)c3c(N)ncnc32)C1
120 nM | C=CC(=O)N1CCC[C@@H](n2nc(-c3ccc(CNS(=O)(=O)c4cc(F)cc(F)c4)cc3)c3c(N)ncnc32)C1
363 nM | C=CC(=O)N1CCC[C@@H](n2nc(-c3ccc(CNS(=O)(=O)c4ccc(F)cc4)cc3)c3c(N)ncnc32)C1
120 nM | C=CC(=O)N1CCC[C@@H](n2nc(-c3ccc(CNS(=O)(=O)c4cc(Cl)ccc4F)cc3)c3c(N)ncnc32)C1
151 nM | C=CC(=O)N1CCC[C@@H](n2nc(-c3ccc(CNS(=O)(=O)c4cc(C(F)(F)F)ccc4F)cc3)c3c(N)ncnc32)C1
98.7 nM | C=CC(=O)N1CCC[C@@H](n2nc(-c3ccc(CNS(=O)(=O)c4ccc5ccccc5c4)cc3)c3c(N)ncnc32)C1
132 nM | C=CC(=O)N1CCC[C@@H](n2nc(-c3ccc(CNS(=O)(=O)CC)cc3)c3c(N)ncnc32)C1
168 nM | C=CC(=O)N1CCC[C@@H](n2nc(-c3ccc(CNS(=O)(=O)c4ccccc4Cl)cc3)c3c(N)ncnc32)C1
58.1 nM | C=CC(=O)N1CCC[C@@H](n2nc(-c3ccc(CNS(=O)(=O)c4cccc5ccccc45)cc3)c3c(N)ncnc32)C1
351 nM | C=CC(=O)N1CCC[C@@H](n2nc(-c3ccc(CNS(=O)(=O)c4cc(C)ccc4OC)cc3)c3c(N)ncnc32)C1
45.7 nM | C=CC(=O)N1CCC[C@@H](n2nc(-c3ccc(CNS(=O)(=O)c4cccc(Cl)c4)cc3)c3c(N)ncnc32)C1
452 nM | C=CC(=O)N1CCC[C@@H](n2nc(-c3ccc(CNS(=O)(=O)c4ccccc4OC(F)(F)F)cc3)c3c(N)ncnc32)C1
371 nM | C=CC(=O)N1CCC[C@@H](n2nc(-c3ccc(CNS(=O)(=O)c4ccc(OCC)cc4)cc3)c3c(N)ncnc32)C1
64.6 nM | C=CC(=O)N1CCC[C@@H](n2nc(-c3ccc(CNS(=O)(=O)c4cc(C)ccc4F)cc3)c3c(N)ncnc32)C1
112 nM | C=CC(=O)N1CCC[C@@H](n2nc(-c3ccc(CNS(C)(=O)=O)cc3)c3c(N)ncnc32)C1
572 nM | N#CN1CCC[C@@H](n2nc(-c3ccc(CNS(=O)(=O)c4cccc(Cl)c4)cc3)c3c(N)ncnc32)C1
